Values joined by “and” are separate entries in the source; they are usually repeats but may differ in a detail not shown here. Equal values may be shown once. Marks after values point to notes of the source that are not given here.
Legend:
[1] = system: cytochrome P450s (CYP) 3A4; parameters: method as in PMID 22056445; settings: in vitro; read-out: IC50 against CYP3A4; cited from earlier work
[2] = system: cytochrome P450s (CYP) 1A2; parameters: method as in PMID 22056445; settings: in vitro; read-out: IC50 against CYP1A2; cited from earlier work
Caco-2 cell monolayer = experiment: Transport of TMFs across Caco-2 cell monolayer, apical to basolateral; type: in vitro ADME, human; settings: 300 μg/mL TMF loaded on apical side, mean ± S.D
Protocol: (§1) Caco-2 cells were cultured in Dulbecco’s modified Eagle’s medium (DMEM; GIBCO, Carlsbad, CA, USA) supplemented with 10% fetal bovine serum (GIBCO), 1% nonessential amino acid solution, and antibiotics (100 U/mL penicillin and 100 µg/mL streptomycin from GIBCO) with a minor modification according to Lu. Cells were grown in an incubator with 5% CO2 and 95% humidity at 37 °C, with medium replaced every 2–3 days. The tests were carried out using cells from passages 25–35. Transwell inserts with a polycarbonate membrane (diameter 1.2 cm, pore size 0.4 μm; Corning Costar Co., Corning, NY, USA) were used in 12-well plates. Caco-2 cells were planted at 5 × 10^5 cells/cm^2 on the membrane inserts, and 0.5 and 1.5 mL of culture media were placed on the apical and basolateral sides, respectively. The medium was changed three times a week, and the Caco-2 cells used in the studies had been cultured in the Transwells for approximately 21 days. The integrity of the cell layer was assessed using Millicell ERS equipment by measuring transepithelial electrical resistance (TEER) values (Millipore Co., Bedford, MA, USA). Monolayers with TEER values greater than 400 Ωcm^2 were used for transport and absorption studies.
(§2) Transport experiments were conducted using modified methodologies from the literature. Before adding the test solution, the apical and basolateral sides of the Coco-2 cell monolayer grown in Transwell inserts were washed three times with Hank’s balanced salt solution (GIBCO). The apical-to-basolateral permeability was measured by adding 0.5 mL of the test solution containing 300 μg/mL TMFs and 1.5 mL of HBSS to the apical and basolateral sides, respectively, and incubating at 37 °C for 0.5, 1, 2, and 4 h. The concentration of TMF utilized was determined using the Caco-2 cell viability test findings. TMF was dissolved and diluted with HBSS before the experiment began. The apical and basolateral solutions were collected after incubation for 0.5, 1, 2, and 4 h, and the concentration of TMF was determined using LC-MS. The apparent permeability coefficient (Papp in cm/s) was calculated over a four-hour duration using Equation (1):Papp = (V/AC0) × (dC/dt)(1) where V is the volume of solution on the basolateral side (1.5 mL); A is the membrane surface area (1.12 cm^2); C0 is the initial concentration on the apical side; and dC/dt is the change in concentration in the basolateral side over time.
(§3) The transport efficiency (%) was calculated using Equation (2):Transport efficiency (%) = (Cbs)/(Cas) × 100 (%)(2) where Cbs is the concentration of TMF transported in the basolateral side; and Cas is the initial concentration of TMF added to the apical side.

[3] = as above; type: in vitro ADME, human; settings: human, Caco-2, calculated over four hours, read-out: apparent permeability coefficient (Papp)
Protocol: as §1, §2, §3

CYP2D6 = target: T1, CYP2D6 (Homo sapiens, UniProt P10635); experiment: CYP inhibition assay (P450 Baculosomes/Vivid substrate, fluorescence), 10-dose IC50; type: biochemical; settings: mean ± S.D.; ND: Not Detected
T1 construct: purchased Invitrogen Corp. (Madison, WI, USA); host or cells: insect cells (baculovirus)

CYP1A2 = target: T2, CYP1A2 (Homo sapiens, UniProt P05177); experiment: as above
T2 sequence (P05177 2-516 limits assumed): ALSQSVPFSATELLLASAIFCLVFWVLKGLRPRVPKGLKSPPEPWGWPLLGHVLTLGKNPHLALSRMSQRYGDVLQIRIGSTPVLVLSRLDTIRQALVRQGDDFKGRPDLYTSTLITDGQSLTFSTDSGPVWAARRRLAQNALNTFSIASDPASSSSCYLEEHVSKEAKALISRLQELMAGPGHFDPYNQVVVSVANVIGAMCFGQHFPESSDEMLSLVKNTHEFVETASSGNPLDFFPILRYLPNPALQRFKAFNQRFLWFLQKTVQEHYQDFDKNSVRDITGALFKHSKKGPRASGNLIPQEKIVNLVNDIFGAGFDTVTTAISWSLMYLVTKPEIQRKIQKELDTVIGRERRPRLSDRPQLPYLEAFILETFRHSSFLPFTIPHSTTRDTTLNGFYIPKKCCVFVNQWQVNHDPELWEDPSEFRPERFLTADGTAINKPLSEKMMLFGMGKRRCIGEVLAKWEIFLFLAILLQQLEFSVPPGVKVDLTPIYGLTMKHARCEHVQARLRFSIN

CYP2C19 = target: T3, CYP2C19 (Homo sapiens, UniProt P33261); experiment: as above; type: biochemical; settings: mean ± S.D.; ND: Not Detected
T3 construct: purchased Invitrogen Corp. (Madison, WI, USA); host or cells: insect cells (baculovirus)

CYP2C9 = CYP2C9 (Homo sapiens, UniProt P11712); experiment: as above
CYP3A4 = CYP3A4 (Homo sapiens, UniProt P08684); experiment: as above
[4] = system: CYP1A2, CYP2C9, CYP2C19 (range over the three); experiment: CYP inhibition assay, summary over the enzyme panel; type: biochemical; settings: human, probe Vivid substrates; range over CYP1A2, 2C9 and 2C19; dose-dependent

Chain of CYP3A4 (P08684 2-503 limits assumed): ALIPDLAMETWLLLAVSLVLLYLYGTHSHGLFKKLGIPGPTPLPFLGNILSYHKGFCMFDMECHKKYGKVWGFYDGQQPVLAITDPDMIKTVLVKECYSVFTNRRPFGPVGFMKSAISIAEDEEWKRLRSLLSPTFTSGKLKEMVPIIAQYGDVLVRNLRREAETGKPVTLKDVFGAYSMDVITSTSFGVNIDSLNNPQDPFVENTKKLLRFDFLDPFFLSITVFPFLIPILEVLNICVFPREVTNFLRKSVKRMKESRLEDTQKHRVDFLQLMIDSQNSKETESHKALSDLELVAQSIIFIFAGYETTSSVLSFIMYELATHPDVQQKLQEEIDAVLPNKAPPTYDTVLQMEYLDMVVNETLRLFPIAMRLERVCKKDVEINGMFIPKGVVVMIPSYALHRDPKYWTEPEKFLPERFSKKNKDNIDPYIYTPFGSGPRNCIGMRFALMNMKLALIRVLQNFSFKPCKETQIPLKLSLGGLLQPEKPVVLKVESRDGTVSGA
Chain of CYP2C9 (P11712 whole entry): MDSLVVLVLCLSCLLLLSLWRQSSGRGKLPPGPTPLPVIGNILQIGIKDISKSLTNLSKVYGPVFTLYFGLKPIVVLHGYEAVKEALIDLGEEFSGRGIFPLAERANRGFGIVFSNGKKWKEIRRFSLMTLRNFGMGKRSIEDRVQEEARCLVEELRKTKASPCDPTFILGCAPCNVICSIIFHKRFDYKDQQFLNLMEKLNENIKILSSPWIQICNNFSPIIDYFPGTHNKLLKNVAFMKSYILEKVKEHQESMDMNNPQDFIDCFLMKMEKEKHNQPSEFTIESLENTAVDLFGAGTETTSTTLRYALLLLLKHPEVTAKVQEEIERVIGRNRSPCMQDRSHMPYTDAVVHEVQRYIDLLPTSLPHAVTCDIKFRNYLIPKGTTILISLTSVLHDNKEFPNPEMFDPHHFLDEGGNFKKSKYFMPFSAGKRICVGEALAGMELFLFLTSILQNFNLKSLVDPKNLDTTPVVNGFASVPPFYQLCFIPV
T3 sequence (P33261 whole entry): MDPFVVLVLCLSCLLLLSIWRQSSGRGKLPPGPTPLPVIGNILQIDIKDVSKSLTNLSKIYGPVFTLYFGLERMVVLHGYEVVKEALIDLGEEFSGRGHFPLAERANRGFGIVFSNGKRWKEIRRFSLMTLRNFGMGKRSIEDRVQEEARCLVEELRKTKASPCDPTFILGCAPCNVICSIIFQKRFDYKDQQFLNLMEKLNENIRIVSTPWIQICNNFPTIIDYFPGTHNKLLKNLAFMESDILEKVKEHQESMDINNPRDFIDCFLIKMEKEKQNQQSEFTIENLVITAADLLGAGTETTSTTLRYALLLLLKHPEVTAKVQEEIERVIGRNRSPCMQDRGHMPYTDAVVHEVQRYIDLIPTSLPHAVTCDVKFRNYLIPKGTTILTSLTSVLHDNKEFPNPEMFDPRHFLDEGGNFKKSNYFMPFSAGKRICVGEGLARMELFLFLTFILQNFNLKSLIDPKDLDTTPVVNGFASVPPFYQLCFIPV
T1 sequence (P10635 whole entry): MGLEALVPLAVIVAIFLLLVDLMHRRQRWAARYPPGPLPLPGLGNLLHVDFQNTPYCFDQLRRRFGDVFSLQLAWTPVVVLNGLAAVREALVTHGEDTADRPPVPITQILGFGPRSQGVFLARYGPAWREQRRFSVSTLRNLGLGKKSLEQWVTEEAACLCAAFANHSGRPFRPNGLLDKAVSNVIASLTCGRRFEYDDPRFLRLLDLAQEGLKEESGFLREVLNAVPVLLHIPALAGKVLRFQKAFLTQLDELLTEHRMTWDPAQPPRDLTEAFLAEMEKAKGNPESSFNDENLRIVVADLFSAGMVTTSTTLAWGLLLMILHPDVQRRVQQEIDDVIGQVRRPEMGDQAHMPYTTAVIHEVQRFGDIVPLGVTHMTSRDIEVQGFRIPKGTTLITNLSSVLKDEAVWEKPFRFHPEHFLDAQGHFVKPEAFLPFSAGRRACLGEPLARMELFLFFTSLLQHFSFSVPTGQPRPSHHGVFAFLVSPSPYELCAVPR

Row | Transport Efficiency (%) (Caco-2 cell monolayer; 1 h) | Transport Efficiency (%) (Caco-2 cell monolayer; 2 h) | Transport Efficiency (%) (Caco-2 cell monolayer; 4 h) | Papp at 4 h, 300 μg/mL [3] | IC50 (CYP2D6) | IC50 (CYP1A2) | IC50 (CYP2C19) | IC50 (CYP2C9) | IC50 (CYP3A4) | IC50 at 25 min [4] | SMILES | IC50 [1] | IC50 [2]
1 | – | – | – | – | – | – | – | – | – | – | COc1cc(-c2cc(=O)c3c(O)c(OC)c(OC)c(OC)c3o2)ccc1O [8-methoxycirsilineol, 4′,5-dihydroxy-3′,6,7,8-tetramethoxy flavone] | 1.71 µM | 2.41 µM
2 | 22.48 ± 3.90 ^c % | 33.03 ± 0.46 ^b % | 34.00 ± 0.01% and 34.00 ± 1.81 ^ab % | 14.3 ×10⁻⁶ cm/s | – | 35.6 ± 12.3 µM | – | 62.5 ± 2.12 µM | 3.56 ± 1.23 µM | – | COc1cc(OC)c2c(=O)cc(-c3ccc(OC)c(OC)c3)oc2c1 [57-TMF, 3′,4′,5,7-tetramethoxyflavone] | – | –
3 | 30.49 ± 0.05 ^c** % | 33.98 ± 0.75 ^b % | 37.58 ± 0.11% and 37.58 ± 2.11 ^a % | 8.83 ×10⁻⁶ cm/s | – | 0.79 ± 0.12 µM | 1.85 ± 0.14 µM | 1.49 ± 0.16 µM | 108 ± 6.31 µM | 0.79 to 1.85 µM | COc1ccc(-c2cc(=O)c3ccc(OC)c(OC)c3o2)cc1OC [78-TMF, 3′,4′,7,8-tetramethoxyflavone] | – | –
4 | 37.82 ± 0.07 ^c % | 41.96 ± 1.14 ^b % | 46% and 46.29 ± 2.16 ^a % | 19.5 ×10⁻⁶ cm/s | 2.28 ± 0.46 µM | 15.5 ± 1.95 µM | 14.8 ± 3.15 µM | 18.3 ± 8.93 µM | 0.15 ± 0.07 µM | – | COc1ccc2c(=O)c(O)c(-c3cc(OC)c(OC)cc3OC)oc2c1 [3H7-TMF, 3-hydroxy-2′,4′,5′,7-tetramethoxyflavone] | – | –

Row | SMILES | Transport Efficiency (%) (Caco-2 cell monolayer; 1 h) | Transport Efficiency (%) (Caco-2 cell monolayer; 2 h) | Transport Efficiency (%) (Caco-2 cell monolayer; 4 h) | Papp at 4 h, 300 μg/mL [3] | IC50 (CYP2D6) | IC50 (CYP1A2) | IC50 (CYP2C19) | IC50 (CYP2C9) | IC50 (CYP3A4) | IC50 at 25 min [4] | IC50 [1] | IC50 [2]
5 | COc1ccc2oc(-c3cc(OC)c(OC)cc3OC)c(O)c(=O)c2c1 [3H6-TMF, 3-hydroxy-2′,4′,5′,6-tetramethoxyflavone] | 25.42 ± 1.92 ^c % | 33.27 ± 2.59 ^b % | 39.43 ± 2.50% and 39% and 39.43 ± 3.50 ^a % | 17.4 ×10⁻⁶ cm/s | 95.5 ± 3.21 µM | 20.6 ± 0.98 µM | 10.2 ± 2.47 µM | 8.03 ± 3.75 µM | 0.44 ± 0.12 µM | – | – | –
